Measured values from patent US20260256751A1, “COMBINATION OF BETA-2-ADRENERGIC RECEPTOR AGONISTS AND GLP-1 RECEPTOR AGONISTS FOR USE IN TREATING HYPERGLYCAEMIA” (ATROGI AB, priority 2023, published 2026).

Experiments:
[1] = system: differentiated L6-myotubes; test: Glucose uptake screen (Biological example 1 of WO 2019/053427); assay type: cell-based; conditions: compound at 10 μM, activity relative to isoproterenol at 10 μM, read-out: Biological example 1 of WO 2019/053427 (GU)
Summary of the method: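 Uptake was read out as ^3H-2-deoxyglucose (50 nM, 10 min) radioactivity in NaOH lysates. Beforehand, overnight-starved, differentiated L6 myotubes received compound at 1×10^−5 M with ICI-118551 present for 1 h 40 min, followed by fresh agonist for a further 20 min in glucose-free medium.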

[2] = system: differentiated L6-myotubes; test: cAMP production relative to isoprenaline (Biological example 2 of WO 2019/053427); assay type: cell-based; conditions: 0.25 h, compound at 10 μM, activity relative to isoproterenol at 10 μM
Summary of the method: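 Values are cAMP levels relative to isoprenaline at equal concentration (final 1×10^−5 M for both). Stimulation lasted 15 min in differentiated L6 myotubes, using HBSS buffer (pH 7.4) containing 1 mM IBMX, 5 mM HEPES and 1% BSA.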

Structure (SMILES)	Emax at 10 µM [1] [%]	Emax at 10 µM [2] [%]
CO[C@H]1CC[C@@H](CCNC[C@H](O)c2cncc(F)c2)CC1 [Compound 238, (R)-1-(5-fluoro-3-pyridyl)-2-{2-[(1s,4S)-4-methoxycyclohexyl]ethyl-amino}-1-ethanol]	> 75	< 25
O[C@H](c1cccc(F)c1)[C@H]1CC[C@H](Cc2ccc(Cl)cc2)N1 [Compound 393, (R)-{(2R,5R)-5-[(p-chlorophenyl)methyl]-2-pyrrolidinyl}(m-fluorophenyl)methanol]	> 75	< 25
CO[C@H]1CC[C@H](CNC[C@H](O)c2cncc(F)c2)CC1 [Compound 229, (R)-1-(5-fluoro-3-pyridyl)-2-({[(1r,4R)-4-methoxycyclohexyl]meth-yl}amino)-1-ethanol]	50 to 75	< 25
CC12CC(C1)[C@@H]([C@H](O)c1cccc(N)c1F)N2 [Compound 244, (R)-{(S)-1-methyl-2-azabicyclo[2.1.1]hex-3-yl}(3-amino-2-fluorophenyl)methanol]	50 to 75	< 25
CS(=O)(=O)N(Cc1ccccc1)CC12CCC([C@H](O)c3cccc(F)c3)(CC1)N2 [Compound 537, (R)-(4-{[(benzyl)-N-mesylamino]methyl}-7-azabicyclo[2.2.1]hept-1-yl)(m-fluorophenyl)methanol]	50 to 75	25 to 50
CCC[C@@H]1CCC[C@H]([C@H](O)c2cccc(F)c2)N1 [Compound 59, (R)-[(2R,6R)-6-propyl-2-piperidyl](m-fluorophenyl)methanol]	25 to 50	< 25
CO[C@H]1CC[C@H](CCC23CCC([C@H](O)c4cccc(F)c4)(CC2)N3)CC1 [Compound 411, (R)-(m-fluorophenyl)(4-{2-[(1r,4S)-4-methoxycyclohexyl]ethyl}-7-azabicyclo[2.2.1]hept-1-yl)methanol]	> 75	50 to 75
O[C@H](c1cccc(F)c1)[C@H]1CCC2(CCCC2)N1 [Compound 168]	50 to 75	25 to 50
COCC12CCC([C@@H](O)c3cccc(F)c3)(CC1)N2 [Compound 329, (S)-(m-fluorophenyl){4-(methoxymethyl)-7-azabicyclo[2.2.1]hept-1-yl}methanol]	25 to 50	< 25
CC(C)(C)NC[C@H](O)c1cccc(O)c1F [Compound 86, (R)-2-(tert-butylamino)-1-(2-fluoro-3-hydroxyphenyl)-1-ethanol]	50 to 75	50 to 75
CCCCNCC(O)c1cc(Cl)c(N)c(Cl)c1 (stereo not drawn) [Compound 29, 1-(4-amino-3,5-dichlorophenyl)-2-(butylamino)-1-ethanol]	> 75	25 to 50
O[C@@H](CNCC[C@H]1CC[C@@H](O)CC1)c1cncc(F)c1 [Compound 293, (R)-1-(5-fluoro-3-pyridyl)-2-{2-[(1s,4S)-4-hydroxycyclohexyl]ethylamino}-1-ethanol]	25 to 50	< 25
CCC[C@H]1CC[C@H]([C@H](O)c2cccc(F)c2)N1 [Compound 124, (R)-[(2R,5S)-5-propyl-2-pyrrolidinyl](m-fluorophenyl)methanol]	50 to 75	< 25
CC(C)(NC[C@H](O)c1cccc(F)c1)[C@H]1CC[C@@H](OCc2ccccc2)CC1 [Compound 280, (R)-1-(m-fluorophenyl)-2-{1-methyl-1-[(1s,4S)-4-(benzyloxy)cyclohexyl]eth-ylamino}-1-ethanol]	> 75	< 25
CS(=O)(=O)N(Cc1ccccc1)c1cccc(CC23CCC([C@@H](O)c4cccc(F)c4)(CC2)N3)c1 [Compound 512, (S)-[4-({m-[(benzyl)-N-mesylamino]phenyl}methyl)-7-azabicyclo[2.2.1]hept-1-yl](m-fluorophenyl)methanol]	< 25	< 25
CC1(C)C[C@@H]([C@H](O)c2cncc(F)c2)N1 [Compound 216, (R)-[(S)-4,4-dimethyl-2-azetidinyl](5-fluoro-3-pyridyl)methanol]	25 to 50	< 25
CO[C@H]1CC[C@H](CNC[C@H](O)c2cccc(F)c2)CC1 [Compound 228, (R)-1-(m-fluorophenyl)-2-({[(1r,4R)-4-methoxycyclohexyl]meth-yl}amino)-1-ethanol]	50 to 75	< 25
CO[C@H]1CC[C@H](CCC(C)(C)NC[C@H](O)c2cncc(F)c2)CC1 [Compound 267, (R)-2-{1,1-dimethyl-3-[(1r,4S)-4-methoxycyclohexyl]propyl-amino}-1-(5-fluoro-3-pyrdiyl)-1-ethanol]	25 to 50	< 25

Structure (SMILES)	Emax at 10 µM [1] [%]	Emax at 10 µM [2] [%]
CO[C@H]1CC[C@H](C[C@H]2CC[C@H]([C@H](O)c3ccccc3F)N2)CC1 [Compound 339, (R)-[(2R,5R)-5-{[(1r,4R)-4-methoxycyclohexyl]methyl}-2-pyrrolidinyl](o-fluorophenyl)methanol]	> 75	25 to 50
CC12CCC([C@@H](O)c3cncc(F)c3)(CC1)N2 [Compound 184, (S)-(5-fluoro-3-pyridyl)(4-methyl-7-azabicyclo[2.2.1]hept-1-yl)methanol]	50 to 75	< 25
O[C@@H](CNC[C@H]1CC[C@H](OCc2ccccc2)CC1)c1cncc(F)c1 [Compound 273, (R)-1-(5-fluoro-3-pyrdiyl)-2-({[(1r,4R)-4-(benzyloxy)cyclohexyl]methyl}amino)-1-ethanol]	25 to 50	< 25
CCC[C@@H](C)NC[C@H](O)c1cccc(F)c1 [Compound 50, (R)-2-[(R)-1-methylbutylamino]-1-(m-fluorophenyl)-1-ethanol]	> 75	< 25
CS(=O)(=O)Nc1ccc(CC23CCC([C@H](O)c4cccc(F)c4)(CC2)N3)cc1 [Compound 475, (R)-(m-fluorophenyl)(4-{[p-(mesylamino)phenyl]methyl}-7-azabicyclo[2.2.1]hept-1-yl)methanol]	50 to 75	< 25
CC12CC(C1)[C@H]([C@@H](O)c1cccc(Cl)c1)N2 [Compound 208, (S)-{(R)-1-methyl-2-azabicyclo[2.1.1]hex-3-yl}(m-chlorophenyl)methanol]	50 to 75	< 25
CCC[C@H]1CCC[C@H]([C@H](O)c2ccc(F)cc2)N1 [Compound 92, (R)-[(2R,6S)-6-propyl-2-piperidyl](p-fluorophenyl)methanol]	25 to 50	< 25
COC(=O)[C@H]1CC[C@H](CCC(C)(C)NC[C@H](O)c2cccc(F)c2)CC1 [Compound 350, methyl (1R,4r)-4-{3-[(R)-2-(m-fluorophenyl)-2-hydroxyethylamino]-3-methylbutyl}cyclohexanecarobxylate]	> 75	< 25
CC(C)(C[C@H]1CC[C@H](S(N)(=O)=O)CC1)NC[C@H](O)c1cncc(F)c1 [Compound 518, (1R,4r)-4-{2-[(R)-2-(5-fluoro-3-pyridyl)-2-hydroxyethylamino]-2-methylpropyl}cyclohexanesulfonamide]	50 to 75	< 25
CC(=O)N[C@H]1CC[C@@H](CC(C)(C)NC[C@H](O)c2cccc(C#N)n2)CC1 [Compound 421, N-[(1R,4s)-4-{2-[(S)-2-(6-cyano-2-pyridyl)-2-hydroxyethylamino]-2-methylpropyl}cyclohexyl]acetamide]	> 75	< 25
O[C@@H](c1cccc(F)c1)C12CCC(COCc3ccc(F)cc3)(CC1)N2 [Compound 438, (S)-(m-fluorophenyl)(4-{[(p-fluorophenyl)methoxy]methyl}-7-azabicyclo[2.2.1]hept-1-yl)methanol]	< 25	< 25
CO[C@H]1CC[C@@H](CNC[C@H](O)c2cccc(F)c2)CC1 [Compound 245, (R)-1-(m-fluorophenyl)-2-({[(1s,4S)-4-methoxycyclohexyl]meth-yl}amino)-1-ethanol]	50 to 75	< 25
CC(C)(NC[C@H](O)c1cncc(F)c1)[C@H]1CC[C@@H](O)CC1 [Compound 286, (R)-1-(5-fluoro-3-pyridyl)-2-{1-methyl-1-[(1s,4S)-4-hydroxycyclohexyl]ethyl-amino}-1-ethanol]	25 to 50	< 25
CC(C)(C[C@H]1CC[C@@H](O)CC1)NC[C@H](O)c1cccc(F)c1 [Compound 302, (R)-2-{1,1-dimethyl-2-[(1s,4S)-4-hydroxycyclohexyl]ethylamino}-1-(m-fluorophenyl)-1-ethanol]	50 to 75	< 25
CC(C)(C)NC[C@H](O)c1ccc(F)cn1 [Compound 96, (S)-2-(tert-butylamino)-1-(5-fluoro-2-pyridyl)-1-ethanol]	50 to 75	< 25
CC1(C)CC[C@@H]([C@H](O)c2cccc(O)c2)N1 [Compound 142, m-{(R)-[(S)-5,5-dimethyl-2-pyrrolidinyl]hydroxymeth-yl}phenol]	25 to 50	< 25
CC12CCC([C@@H](O)c3cccc(Cl)c3)(CC1)N2 [Compound 196, (S)-(m-chlorophenyl)(4-methyl-7-azabicyclo[2.2.1]hept-1-yl)methanol]	25 to 50	< 25
CC1(C)CC[C@H]([C@@H](O)c2cccc(N)c2F)N1 [Compound 226, (S)-[(R)-5,5-dimethyl-2-pyrrolidinyl](3-amino-2-fluorophenyl)methanol]	25 to 50	< 25
